Legend:
hSTING-WT (R232) = biological target: T1, hSTING-WT (R232) (Homo sapiens, UniProt Q86WV6, H232R); experiment: STING activation, THP1-Dual IRF3 reporter assay, hSTING-R232 cells; format: cell-based; details: IRF3 luciferase reporter, 24 hours, read-out: STING activity using hSTING-R232 cells EC50
T1 construct: host or cells: THP1-Dual cells (human monocytes) with knocked-in hSTING R232
Protocol: To assess potency of STING agonist compounds described herein, THP1-Dual™ Cells (NF—KB-SEAP and IRF-Lucia luciferase reporter monocytes, InvivoGen) were used. The reporter cells were knocked-in either of hSTING-WT (R232, #thpd-r232), HAQ variant (#thpd-nfis), or H232 variant (#thpd-h232). All cells were cultured at 37° C. in a humidified incubator at 5% CO2 and maintained in RPMI 1640 medium (Gibco, #22400097) supplemented with 10% heat-inactivated FBS and 1×Pen-Strep (Gibco, #15140122). To measure STING agonist-mediated IRF3 activity, the cells (9.0×10^4 cells per well) were seeded in a flat-bottomed 96-well plate. The next day, the cells were treated with compounds in a serial dilution for 24 hours. Subsequently, 20 μL of the cell culture supernatant and 50 μL of the QUANTI-Luc™ reagent (InvivoGen, #rep-qlc) were mixed in a 96-well white plate and then, luciferase activity was measured using an EnVision Xcite multilabel reader. The data were analyzed using Prism8 software (4-parameter).
The potency of STING agonist compounds was evaluated by the activation of Type I Interferon pathway using THP-1 IRF3 reporter assay.

human STING = biological target: T2, human STING (Homo sapiens, UniProt Q86WV6, H232R); experiment: Direct STING binding, HUMAN STING WT BINDING KIT (Cisbio); details: direct binding to human STING WT protein in vitro; read-out: Binding potency EC50
T2 construct: purchased Cisbio 64BDSTGPEG
T2 sequence (Q86WV6 whole entry H232R): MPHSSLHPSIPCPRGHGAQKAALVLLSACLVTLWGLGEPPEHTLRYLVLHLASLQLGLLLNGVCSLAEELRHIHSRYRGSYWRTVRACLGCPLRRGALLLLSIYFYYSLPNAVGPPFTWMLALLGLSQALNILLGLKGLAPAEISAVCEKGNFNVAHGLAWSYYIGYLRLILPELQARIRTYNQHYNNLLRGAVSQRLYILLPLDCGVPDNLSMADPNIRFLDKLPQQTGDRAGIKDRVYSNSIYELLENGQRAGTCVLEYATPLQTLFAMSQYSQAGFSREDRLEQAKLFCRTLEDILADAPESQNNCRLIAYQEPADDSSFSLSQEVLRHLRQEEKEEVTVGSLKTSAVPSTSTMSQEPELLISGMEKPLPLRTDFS
Text: Additionally, for analysis of direct binding potency of STING agonist compounds described herein to human STING, HUMAN STING WT BINDING KIT (Cisbio, #64BDSTGPEG) was used according to the manufacture's instruction.

[1] = system: human PBMCs (CD8+ T cells and NK cells); experiment: CD8+ T and NK cell activation in PBMCs by flow cytometry; format: cell-based; details: for expansion of activated CD8+ T cells / expansion of activated NK cells: 3 μM, 24 hours; for expansion of activated CD8+ T cells: FIG. 5A; for expansion of activated NK cells: FIG. 5B
Protocol: To test the effect of STING agonist compounds described herein in the activation of innate and adaptive immune cells, flow cytometry (FACS) was performed. Human THP-1 cells (Korean Cell Line Bank, #40202) and PBMCs were seeded at 1.2×10^5 cells per well in a round-bottomed 96-well plate in RPMI 1640 medium (Gibco, #22400097) supplemented with 10% heat-inactivated FBS and 1× Antibiotic-Antimycotic (Gibco, #15240062) and rested for 24 hours at 37° C. The cells were stimulated with the STING agonist compounds as described; For THP-1 stimulation, the cells were treated with the STING agonist compound (Compound 313) in a 5-fold serial dilution from 1 μM for 48 hours. The induction of cell surface activation markers, CD86 (co-stimulatory molecule) and HLA-DR (MHC-class II), was measured by flow cytometry. […] For flow cytometry analysis, the stimulated cells were centrifuged at 300 g for 5 minutes at 4° C., and then resuspended in FACS buffer (2% FBS, 2 mM EDTA in PBS). After staining cells with human Fc blocker (BD Biosciences, #564220) in FACS buffer for 10 minutes at 4° C. Subsequently, the cells were stained with fluorescence-conjugated antibodies against CD8, CD3, CD56, and CD69 for CD8 T and NK cells activation and against CD86 and MHC-II for THP-1 naïve cells activation for 40 minutes at 4° C. After washing three times with FACS buffer, the cells were resuspended in FACS buffer and analyzed by FACSlyric (BD bioscience). The data were analyzed with Flowjo 9.0 software (BD bioscience).
After treating human PBMCs with the STING agonist compounds, it was analyzed the activation of CD8^+ T cells and NK cells by measuring CD69, an activation marker, on their cell surface by flow cytometry.

[2] = system: human peripheral blood mononuclear cells (PBMCs); experiment: Cytokine production induction in PBMCs (ELISA); format: cell-based; details: 1 μM, 24 hours; for human CXCL-10 production: FIG. 1A; for human IFNα production: FIG. 1B
Protocol: The cells (2.0×10^4 cells per well) were seeded in a flat-bottomed 96-well plate. PBMCs were stimulated with STING agonist compounds described herein (Compound 214, 221, and 230) at 1 μM for 24 hours. BxPC-3 and MDA-MB-468 tumor cells were treated with STING agonist compounds described herein (Compound 313) in a 5-fold serial dilution from […] for 24 hours, respectively. The levels of cytokines in the culture supernatants were measured using the ELISA kit (R&D systems, #DY266, #DY9345-05) according to the manufacture's instruction.
Briefly, each well of a 96-well plate was coated with 100 μL of the diluted capture antibody in PBS and incubated overnight at room temperature (RT). Next day, each well was washed with wash buffer (0.05% Tween 20 in PBS) three times using an auto-washer. The plates were blocked with 300 μL of Reagent Diluent (1% BSA in PBS) for 1 hour at RT. The aspiration/wash step was repeated. 100 μL of diluted samples or standards in Reagent Diluent was added to each well and incubated for 2 hours at RT. After wash, 100 μL of the Detection Antibody pre-diluted in Reagent Diluent was added into each well and incubated for 2 hours at RT. After wash, 100 μL of the working diluted […] in Reagent Diluent was added and incubated under subdued light conditions for 20 minutes, followed by repeated aspiration/wash. 100 μL of substrate solution (mixed H2O2 and Tetramethylbenzidine in a 1:1 ratio) was added and incubated for 20 minutes at RT in avoiding direct light exposure. The reaction was stopped by adding 50 μL of stop solution (2N H2SO4). The optical density was determined using a microplate reader (Molecular Devices VersaMax Microplate Reader). The optical density (O.D.) of each well was normalized by subtracting the reading at 570 nm from the reading at 450 nm.

[3] = Plasma pharmacokinetics in naive Balb/C mouse, LC-MS/MS; format: in vivo; details: 1.5 mg/kg single IV; for AUC∞, norm / Cmax, norm: n = 3, dose-normalised; for AUC(0-inf) / AUC(0-t) / C0 / Cmax / clearance / half-life / Vd: female; for AUC(0-inf) / AUC(0-t) / C0 / Cmax: n = 3, plasma; for clearance / half-life / Vd: plasma; for clearance / half-life: n = 3; for Vd: n = 3, read-out: VSS
Protocol: For in vivo evaluation of STING agonist compounds described herein in naïve Balb/C mouse, single doses of STING agonist compounds were given at 1.5 mg/kg intravenously into female BALB/c mice (Orientbio, South Korea) at 6-8 weeks of age. Pharmacokinetics were studied following injection of the STING agonist compounds into Balb/C mice. Plasma samples were taken at various time points and stored frozen for analysis. The plasma concentrations of the STING agonist compounds at the indicated time points were measured using a LC-MS/MS analysis method.
Briefly, 250 μL of acetonitrile (ACN) solution was added in both 50 μL of sample and 50 μL of plasma containing 10 nM Dextromethorphan (internal standard), and the solutions were mixed vigorously using a vortex mixer for 5 minutes. The samples were then spun down at 14,000 rpm, 4° C. for 5 minutes. 100 μL of supernatants were combined with 100 μL of mobile phase A (0.1% formic acid in water with 5% ACN) and mixed thoroughly. The samples were measured for the STING agonist compounds using a LC-MS/MS (Nexera LC40 (SHIMADZU) and QTRAP4500 (SCIEX)).

[4] = Normal cell cytotoxicity in PBMCs, CellTiter-Glo; format: cell-based; details: human, read-out: In vitro cell cytotoxicity in PBMCs CC50
Protocol: PBMCs were also purchased from […]™ (#700025.2). The cells (8.0×10^4 cells per well) were seeded in a flat-bottomed 96-well plate in RPMI 1640 medium (Gibco, #22400097) with 10% heat-inactivated FBS and 1× Antibiotic-Antimycotic (Gibco, #15240062) and rested for 24 hours at 37° C. […] After 72 hours, the cell viability was measured using CellTiter-Glo Luminescent Cell Viability Assay (Promega, #G7573) according to the manufacture's instruction. The signal was detected using an EnVision Xcite multilabel reader and data were analyzed using GraphPad Prism 8 software.
To verify the effect of the STING agonist compounds in normal cell cytotoxicity, the PBMCs were treated with the STING agonist compounds for 3 days and measured the percentage of cell death.

[5] = Normal cell cytotoxicity in CD34+ HSC, CellTiter-Glo; format: cell-based; details: human, CD34+ hematopoietic stem cells (HSCs), read-out: In vitro cell cytotoxicity in CD34+ HSC CC50
Protocol: The CD34^+ hematopoietic stem cells (HSCs) were purchased from […]™ (#70002.3). The cells (2×10^4 cells per well) were cultured in StemSpan™ SFEM II medium supplemented with StemSpan™ CD34+ Expansion Supplement (#02691) in a 6-well plate at 37° C. for 7 days. On day 3 or 4, an equal volume of fresh complete medium was added into the cell culture. On day 7, the cells (4×10^4 cells per well) were seeded in a 96-well white plate and rested for 24 hours in the same condition.
After 72 hours, the cell viability was measured using CellTiter-Glo Luminescent Cell Viability Assay (Promega, #G7573) according to the manufacture's instruction. The signal was detected using an EnVision Xcite multilabel reader and data were analyzed using GraphPad Prism 8 software.

T1 sequence (Q86WV6 whole entry H232R): as above

| EC50 (hSTING-WT (R232)) | EC50 (human STING) | AUC∞, norm [3] | Cmax, norm [3] | AUC(0-inf) [3] | AUC(0-t) [3] | C0 [3] | Cmax [3] | clearance [3] | half-life [3] | Vd [3] | SMILES | expansion of activated CD8+ T cells [1] | expansion of activated NK cells [1] | human CXCL-10 production [2] | human IFNα production [2] | CD69 expression on CD8+ T cells ([1]; 100 nM, 48 hours, FIG. 4A) | CD69 expression on NK cells ([1]; 100 nM, 48 hours, FIG. 4B) | CC50 at 72 h [4] | CC50 at 72 h [5] |
| --- | --- | --- | --- | --- | --- | --- | --- | --- | --- | --- | --- | --- | --- | --- | --- | --- | --- | --- | --- |
| 11.1 nM | 0.24 nM | – | – | – | – | – | – | – | – | – | CCn1nc(C)cc1C(=O)Nc1nc2cc(C(N)=O)cc(OC)c2n1C/C=C/Cn1c(NC(=O)c2cc(C)nn2CC)nc2cc(C(N)=O)cc(OC/C=C/Cn3cc(NC(=O)OCc4ccc(O[C@@H]5O[C@H](C(=O)O)[C@@H](O)[C@H](O)[C@H]5O)c(C(=O)NCCOCCOCCO[C@@H]5O[C@H](C(=O)O)[C@@H](O)[C@H](O)[C@H]5O)c4)cn3)c21 [Compound 344] | enhanced expansion | enhanced expansion | – | – | – | – | – | – |
| 68.3 nM | – | 4.53 ± 0.15 kg·h/L | 5.37 ± 0.30 kg/L | 6800 ± 230 ng·h/mL | 6670 ± 220 ng·h/mL | 9790 ± 430 ng/mL | 8060 ± 450 ng/mL | 3.67 mL/min/kg | 63.6 ± 2.4 min | 0.26 ± 0.01 L/kg | CCn1nc(C)cc1C(=O)Nc1nc2cc(C(N)=O)cc(OC)c2n1CC=CCn1c(NC(=O)c2cc(C)nn2CC)nc2cc(C(N)=O)cc(OCCCN3CCN(C(=O)OCc4ccc(OC5OC(C(=O)O)C(O)C(O)C5O)c(C(=O)NCCOC)c4)CC3=O)c21 (centres unmarked) [Compound 221] | – | – | induced cytokine production | induced cytokine production | – | – | – | – |
| 35.8 nM | 0.1 nM | – | – | – | – | – | – | – | – | – | CCn1nc(C)cc1C(=O)Nc1nc2cc(C(N)=O)cc(OC/C=C/Cn3cc(NC(=O)OCc4ccc(O[C@@H]5O[C@H](C(=O)O)[C@@H](O)[C@H](O)[C@H]5O)c(C(=O)NCCOCCOCCN5CCOCC5)c4)cn3)c2n1C/C=C/Cn1c(NC(=O)c2cc(C)nn2CC)nc2cc(C(N)=O)cc(OCCCC(=O)O)c21 [Compound 361] | enhanced expansion | enhanced expansion | – | – | – | – | – | – |
| 3.96 nM | – | – | – | – | – | – | – | – | – | – | CCn1nc(C)cc1C(=O)Nc1nc2cc(C(N)=O)cc(OC)c2n1C/C=C/Cn1c(NC(=O)c2cc(C)nn2CC)nc2cc(C(N)=O)cc(OCc3cccc(NC(=O)OCc4ccc(O[C@@H]5O[C@H](C(=O)O)[C@@H](O)[C@H](O)[C@H]5O)c(C(=O)NCCOC)c4)c3)c21 [Compound 230] | – | – | induced cytokine production | induced cytokine production | – | – | – | – |
| 27.4 nM | 0.2 nM | 7.37 ± 0.25 kg·h/L | 4.04 ± 0.24 kg/L | 11100 ± 370 ng·h/mL | 10500 ± 490 ng·h/mL | 6530 ± 320 ng/mL | 6060 ± 360 ng/mL | 2.33 mL/min/kg | 82.8 ± 11.4 min | 0.27 ± 0.03 L/kg | CCn1nc(C)cc1C(=O)Nc1nc2cc(C(N)=O)cc(OC)c2n1C/C=C/Cn1c(NC(=O)c2cc(C)nn2CC)nc2cc(C(N)=O)cc(OC/C=C/Cn3cc(NC(=O)OCc4ccc(O[C@@H]5O[C@H](C(=O)O)[C@@H](O)[C@H](O)[C@H]5O)c(C(=O)NCCOCCOCCO)c4)cn3)c21 [Compound 277] | – | – | – | – | enhanced CD69 expression | enhanced CD69 expression | 32.1 nM | 13.5 nM |
